The values below come from patent US20230398137A1, “METHODS FOR LOWERING HBA1C LEVEL WITH A COMBINATION OF A BET BROMODOMAIN INHIBITOR AND A SODIUM DEPENDENT GLUCOSE TRANSPORT 2 INHIBITOR” (Resverlogix Corp., priority 2020, published 2023).

Structures are written as SMILES. Where two headings read alike, the source gives them in different places.

Test [1] has as its system HbA1c. Conditions: cited from earlier work.
In test [2] the test system is HbA1c. The experiment in a line: BETonMACE Phase 3 trial (NCT02586155), post-hoc analysis of HbA1c from baseline to last visit on treatment (LVT). Type of test: in vivo, human.
Experimental: Apabetalone (RVX-208) was evaluated in a recently completed clinical Phase 3 trial (BETonMACE; NCT02586155) for the effect on MACE in type 2 diabetes patients with low HDL cholesterol (below 40 mg/dL for males and below 45 mg/dL for females) and a recent acute coronary syndrome (ACS) (preceding 7-90 days). All patients received high intensity statin treatment or maximum tolerated statin treatment, which was 20-40 mg daily or a maximum daily dose of 40 mg for rosuvastatin or 40-80 mg daily or a maximum daily dose of 80 mg for atorvastatin.
Patients (n=2425) with ACS in the preceding 7 to 90 days, with type 2 diabetes and low HDL cholesterol (≤40 mg/dl for men, ≤45 mg/dl for women), receiving intensive or maximum-tolerated therapy with atorvastatin or rosuvastatin, were assigned in double-blind fashion to receive apabetalone 100 mg orally twice daily or matching placebo.
Specifically, a total of 150 patients received both RVX-208 and an SGLT2 inhibitor; a total of 148 received an SGLT2 inhibitor, but no RVX-208; a total of 1062 received RVX-208, but no SGLT2 inhibitor; a total of 1058 received neither RVX-208 or an SGLT2 inhibitor.
Patients who were randomized and received at least one dose of SGLT2 treatment while actively receiving study drug (RVX-208 or placebo) were counted as those receiving a combination of SGLT2 treatment with either RVX-208 or placebo. Patients receiving more than one drug therapy within the SGLT2 inhibitor class were counted only once based upon whichever drug therapy patients continued taking at the end of treatment with study drug (RVX-208 or placebo). In cases where patients were receiving more than one drug therapy within the SGLT2 inhibitor class at the end of treatment with study drug, whichever SGLT2 inhibitor therapy was received for longer was counted.
The last visit on treatment (LVT) timepoint represented the longest study exposure duration for patients receiving RVX-208 or placebo with and without SGLT2 inhibitors and is the focus of this analysis.
The subject of test [3] is HbA1c. Conditions: over the duration of the trial; 95% CI −0.61 to −0.56; p<0.001; cited from earlier work.
Test [4] concerns HbA1c. The following applies: T2DM and albuminuric CKD, cited from earlier work.

As for `OC[C@H]1O[C@@H](c2ccc(Cl)c(Cc3ccc(O[C@H]4CCOC4)cc3)c2)[C@H](O)[C@@H](O)[C@@H]1O` [empagliflozin], the “reduction of HbA1c compared to placebo (adjusted mean difference)” value with HbA1c [1] (10-mg group, after 12 weeks, 95% CI −0.58 to −0.49) is on record as 0.54%. The “adjusted mean difference in HbA1c levels versus placebo” value with HbA1c [1] (10-mg group, week 94, 95% CI −0.48 to −0.36) is listed as −0.42%; in the test on HbA1c [1] (10-mg group, week 206, 95% CI −0.40 to −0.08) it was −0.24%; with HbA1c [1] (25-mg group, week 94, 95% CI −0.54 to −0.41) it was −0.47%; in the test with HbA1c [1] (25-mg group, week 206, 95% CI −0.51 to −0.20), −0.36%. Moreover, the “adjusted mean difference in HbA1c compared to placebo” value in the test on HbA1c [1] (25-mg group, after 12 weeks, 95% CI −0.64 to −0.55) is recorded as −0.60 percentage points.

For `COc1cc(OC)c2c(=O)[nH]c(-c3cc(C)c(OCCO)c(C)c3)nc2c1` [RVX-208, 2-(4-(2-hydroxyethoxy)-3,5-dimethylphenyl)-5,7-dimethoxyquinazolin-4(3H)-one], the “ability to reduce levels of HbA1c (in words)” value in the test on HbA1c [2] (T2DM patients with a recent ACS) is recorded as “did not demonstrate the ability to statistically reduce levels of HbA1c”. In addition, the “median HbA1c at baseline” value in the test on HbA1c [2] (T2DM patients with low HDL cholesterol and recent ACS on high intensity or maximum tolerated statin, baseline value of the group) was found to be 7.3%. The “median HbA1c at the last visit on treatment (LVT)” value with HbA1c [2] (T2DM patients with recent ACS on statin, apabetalone 100 mg orally twice daily where given, median time to LVT about 2 years) is listed as 7.3%. Also, in the test with HbA1c [2] (T2DM patients with recent ACS, FIG. 3), the “median change of HbA1c from baseline to LVT” value is reported as “+0.20%”. Also, the “mean change of HbA1c from baseline to LVT” value in the test on HbA1c [2] (T2DM patients with recent ACS, FIG. 4) is on record as “+0.22%”.

On to `Cc1ccc([C@@H]2O[C@H](CO)[C@@H](O)[C@H](O)[C@H]2O)cc1Cc1ccc(-c2ccc(F)cc2)s1` [canagliflozin], for which, in the test with HbA1c [3], the “mean difference in HbA1c between drug group and placebo group” value is on record as −0.58%. The “least-squares mean level of HbA1c lower than in the placebo group by” value in the test with HbA1c [4] (at 13 weeks, 95% CI 0.26 to 0.37) is 0.31%. Also, in the test on HbA1c [4] (throughout the trial, 95% CI 0.20 to 0.31), the “overall mean difference in the reduction of HbA1c versus placebo” value is 0.25%.
